Measurements taken from patent US20260232578A1, “COMPOSITIONS AND METHODS FOR TRANSMUCOSAL ABSORPTION” (Tonix Pharma Limited, priority 2012, published 2026).
Values joined by “and” are separate entries in the source; they are usually repeats but may differ in a detail not shown here. Equal entries are not always repeated.

Legend:
[1] = target: T1, adrenergic alpha-2C receptor (Alpha2C) (Homo sapiens, UniProt P18825); experiment: Equilibrium receptor binding, recombinant human receptor
T1 construct: expressed in transfected cells
T1 sequence (P18825 1-462): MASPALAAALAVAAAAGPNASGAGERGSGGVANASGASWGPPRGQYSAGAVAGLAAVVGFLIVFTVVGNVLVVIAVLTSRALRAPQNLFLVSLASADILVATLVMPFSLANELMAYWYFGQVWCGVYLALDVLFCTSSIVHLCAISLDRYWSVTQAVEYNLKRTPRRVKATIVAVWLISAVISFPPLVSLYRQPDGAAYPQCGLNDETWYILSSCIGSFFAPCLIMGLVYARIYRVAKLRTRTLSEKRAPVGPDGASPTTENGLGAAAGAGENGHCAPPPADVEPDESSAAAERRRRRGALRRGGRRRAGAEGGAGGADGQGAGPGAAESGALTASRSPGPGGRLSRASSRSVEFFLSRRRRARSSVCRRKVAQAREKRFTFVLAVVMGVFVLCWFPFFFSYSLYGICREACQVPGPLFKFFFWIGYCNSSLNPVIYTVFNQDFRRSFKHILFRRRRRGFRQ

5-HT1A receptor = target: T2, 5-HT1A receptor (Homo sapiens, UniProt P08908); experiment: as above
T2 construct: expressed in transfected cells
T2 sequence (P08908 1-422): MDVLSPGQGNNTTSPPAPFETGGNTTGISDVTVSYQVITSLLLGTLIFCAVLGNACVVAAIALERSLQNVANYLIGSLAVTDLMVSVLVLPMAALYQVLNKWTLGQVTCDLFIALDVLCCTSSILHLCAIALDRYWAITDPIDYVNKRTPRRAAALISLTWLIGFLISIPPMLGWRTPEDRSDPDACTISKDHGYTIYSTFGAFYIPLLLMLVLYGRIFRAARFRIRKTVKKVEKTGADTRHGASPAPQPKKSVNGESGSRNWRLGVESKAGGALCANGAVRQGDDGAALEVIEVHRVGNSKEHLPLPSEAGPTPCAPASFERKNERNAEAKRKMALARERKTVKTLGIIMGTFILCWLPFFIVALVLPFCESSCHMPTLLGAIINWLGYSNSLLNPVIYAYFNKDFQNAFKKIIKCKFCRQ

[2] = target: T3, adrenergic α1A receptor (Alpha1A) (Homo sapiens, UniProt P35348); experiment: as above; details: for Ki: Alpha1A
T3 construct: expressed in transfected cells
T3 sequence (P35348 1-466): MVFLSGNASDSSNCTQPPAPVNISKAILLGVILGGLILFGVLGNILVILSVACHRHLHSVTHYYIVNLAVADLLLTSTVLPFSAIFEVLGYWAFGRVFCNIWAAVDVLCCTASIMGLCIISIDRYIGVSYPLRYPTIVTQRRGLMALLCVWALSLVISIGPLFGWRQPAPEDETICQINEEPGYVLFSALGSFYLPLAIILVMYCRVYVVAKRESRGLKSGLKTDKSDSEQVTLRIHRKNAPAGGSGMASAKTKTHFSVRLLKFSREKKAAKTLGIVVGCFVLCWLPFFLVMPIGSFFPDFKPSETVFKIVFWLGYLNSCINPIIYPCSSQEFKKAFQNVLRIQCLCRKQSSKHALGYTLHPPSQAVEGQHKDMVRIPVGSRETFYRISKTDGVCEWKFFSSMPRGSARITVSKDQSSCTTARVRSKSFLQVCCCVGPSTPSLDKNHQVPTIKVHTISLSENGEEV

[3] = target: T4, adrenergic α1B receptor (Alpha1B) (Homo sapiens, UniProt P35368); experiment: as above
T4 construct: expressed in transfected cells

dopamine D1 receptor [4] = target: T5, dopamine D1 receptor (Homo sapiens, UniProt P21728); experiment: as above
T5 construct: expressed in transfected cells

D2S = target: T6, D2S (Homo sapiens, UniProt P14416); experiment: as above
T6 construct: expressed in transfected cells

D5 = D5 (Homo sapiens, UniProt P21918); experiment: as above
5-HT5A receptor = target: T7, 5-HT5A receptor (Homo sapiens, UniProt P47898); experiment: as above
T7 construct: expressed in transfected cells

[5] = target: T8, adrenergic alpha-2A receptor (Homo sapiens, UniProt P08913); experiment: Functional antagonism, ligand-induced intracellular calcium mobilization; assay type: cell-based; details: read-out: IC50, functional antagonist
T8 construct: expressed in transfected cells
Protocol: Quantitation was based on peak area ratio of the analytes versus their stable labeled internal standards. A weighted (1/C2), linear regression was performed to determine the concentration of the analytes. All regressions and figures presented in this validation report were generated by MDS Sciex Analyst version 1.4.2 and Thermo Electron Corporation Watson LIMS software, version 7.0.0.01b. […] Select receptors were analyzed in ligand-induced intracellular calcium mobilization.

dopamine D1 receptor [6] = target: T5, dopamine D1 receptor; experiment: G-protein-dependent signal transduction (Ca2+ mobilization, cAMP production or inositol triphosphate turnover); assay type: cell-based; details: for IC50: read-out: IC50 (nM) (Antagonist)
adrenergic α1B receptor = target: T9, adrenergic α1B receptor (Homo sapiens, UniProt P35368); experiment: G-protein-independent signal transduction, β-arrestin signaling; assay type: cell-based; details: for IC50: α1B, β-arrestin signaling, read-out: IC50, functional antagonist
T9 construct: expressed in transfected cells
T9 sequence (P35368 1-520): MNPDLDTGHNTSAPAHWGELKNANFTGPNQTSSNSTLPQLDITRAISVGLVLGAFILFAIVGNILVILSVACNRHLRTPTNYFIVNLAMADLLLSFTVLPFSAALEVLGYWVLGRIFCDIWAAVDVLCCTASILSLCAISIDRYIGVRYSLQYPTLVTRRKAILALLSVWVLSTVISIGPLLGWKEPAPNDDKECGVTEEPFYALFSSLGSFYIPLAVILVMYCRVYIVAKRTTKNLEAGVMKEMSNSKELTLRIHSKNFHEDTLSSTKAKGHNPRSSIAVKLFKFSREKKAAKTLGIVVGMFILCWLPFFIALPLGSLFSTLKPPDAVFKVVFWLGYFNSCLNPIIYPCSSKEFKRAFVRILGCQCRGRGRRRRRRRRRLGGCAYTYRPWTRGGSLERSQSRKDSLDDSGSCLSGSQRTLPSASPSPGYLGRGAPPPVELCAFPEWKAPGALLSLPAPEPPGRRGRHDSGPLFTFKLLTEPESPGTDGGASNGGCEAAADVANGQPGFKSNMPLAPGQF

5-HT2A = target: T10, 5-HT2A (Homo sapiens, UniProt P28223); experiment: G-protein-dependent signal transduction, turnover of inositol triphosphate (IP); assay type: cell-based; details: read-out: IC50 (nM) (Antagonist)
T10 construct: expressed in transfected cells

dopamine (D) transporter = dopamine (D) transporter (Homo sapiens, UniProt Q01959); experiment: biochemical
5-HT6 = 5-HT6 (Homo sapiens, UniProt P50406); experiment: Equilibrium receptor binding, recombinant human receptor; set-up: expressed in transfected cells
5-HT6, sequence (P50406 whole entry): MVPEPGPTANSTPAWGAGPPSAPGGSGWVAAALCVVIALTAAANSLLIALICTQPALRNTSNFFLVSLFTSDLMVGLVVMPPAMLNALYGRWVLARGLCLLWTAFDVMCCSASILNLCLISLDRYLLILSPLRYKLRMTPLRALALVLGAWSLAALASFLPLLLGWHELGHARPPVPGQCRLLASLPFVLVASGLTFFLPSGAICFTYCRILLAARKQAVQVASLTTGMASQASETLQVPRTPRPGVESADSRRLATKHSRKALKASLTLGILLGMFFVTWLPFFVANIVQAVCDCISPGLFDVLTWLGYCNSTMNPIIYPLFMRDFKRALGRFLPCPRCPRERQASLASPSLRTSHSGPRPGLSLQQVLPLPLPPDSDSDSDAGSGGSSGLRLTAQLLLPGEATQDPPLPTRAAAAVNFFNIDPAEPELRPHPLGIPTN

T5 sequence (P21728 whole entry): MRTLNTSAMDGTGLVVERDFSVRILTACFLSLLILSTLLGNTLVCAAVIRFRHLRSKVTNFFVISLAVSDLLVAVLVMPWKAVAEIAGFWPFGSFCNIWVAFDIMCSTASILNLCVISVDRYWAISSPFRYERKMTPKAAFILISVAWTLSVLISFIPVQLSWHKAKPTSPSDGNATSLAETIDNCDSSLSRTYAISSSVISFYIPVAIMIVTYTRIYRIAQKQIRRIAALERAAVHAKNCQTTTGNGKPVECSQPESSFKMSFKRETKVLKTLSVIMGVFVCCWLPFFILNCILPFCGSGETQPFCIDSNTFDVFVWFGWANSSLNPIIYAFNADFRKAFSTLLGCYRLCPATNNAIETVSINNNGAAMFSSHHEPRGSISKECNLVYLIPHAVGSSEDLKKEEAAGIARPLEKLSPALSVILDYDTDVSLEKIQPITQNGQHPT
D5, sequence (P21918 whole entry): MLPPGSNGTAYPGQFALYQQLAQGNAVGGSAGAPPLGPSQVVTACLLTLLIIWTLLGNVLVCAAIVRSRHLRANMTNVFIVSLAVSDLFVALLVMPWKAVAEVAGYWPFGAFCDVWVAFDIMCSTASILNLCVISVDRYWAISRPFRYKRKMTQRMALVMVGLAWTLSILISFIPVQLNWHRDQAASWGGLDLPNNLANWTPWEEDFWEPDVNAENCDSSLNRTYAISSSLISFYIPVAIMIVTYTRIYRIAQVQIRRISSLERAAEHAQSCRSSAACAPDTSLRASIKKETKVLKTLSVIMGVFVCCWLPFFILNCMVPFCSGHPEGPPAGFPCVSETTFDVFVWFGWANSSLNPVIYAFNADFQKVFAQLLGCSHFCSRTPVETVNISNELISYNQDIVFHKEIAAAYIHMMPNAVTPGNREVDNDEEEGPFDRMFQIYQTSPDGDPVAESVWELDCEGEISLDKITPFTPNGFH
T6 sequence (P14416 1-414 isoform P14416-2): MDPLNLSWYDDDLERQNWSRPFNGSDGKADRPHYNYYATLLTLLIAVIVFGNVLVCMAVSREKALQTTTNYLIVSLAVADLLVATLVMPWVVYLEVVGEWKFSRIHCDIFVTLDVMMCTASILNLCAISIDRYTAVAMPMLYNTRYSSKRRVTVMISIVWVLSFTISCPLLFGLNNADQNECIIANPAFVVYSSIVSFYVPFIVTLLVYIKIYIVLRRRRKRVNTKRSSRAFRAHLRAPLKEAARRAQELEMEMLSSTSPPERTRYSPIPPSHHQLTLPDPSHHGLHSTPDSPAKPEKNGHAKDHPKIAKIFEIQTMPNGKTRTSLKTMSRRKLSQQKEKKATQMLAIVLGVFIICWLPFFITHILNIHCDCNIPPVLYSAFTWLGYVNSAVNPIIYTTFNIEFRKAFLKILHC
dopamine (D) transporter, sequence (Q01959 whole entry): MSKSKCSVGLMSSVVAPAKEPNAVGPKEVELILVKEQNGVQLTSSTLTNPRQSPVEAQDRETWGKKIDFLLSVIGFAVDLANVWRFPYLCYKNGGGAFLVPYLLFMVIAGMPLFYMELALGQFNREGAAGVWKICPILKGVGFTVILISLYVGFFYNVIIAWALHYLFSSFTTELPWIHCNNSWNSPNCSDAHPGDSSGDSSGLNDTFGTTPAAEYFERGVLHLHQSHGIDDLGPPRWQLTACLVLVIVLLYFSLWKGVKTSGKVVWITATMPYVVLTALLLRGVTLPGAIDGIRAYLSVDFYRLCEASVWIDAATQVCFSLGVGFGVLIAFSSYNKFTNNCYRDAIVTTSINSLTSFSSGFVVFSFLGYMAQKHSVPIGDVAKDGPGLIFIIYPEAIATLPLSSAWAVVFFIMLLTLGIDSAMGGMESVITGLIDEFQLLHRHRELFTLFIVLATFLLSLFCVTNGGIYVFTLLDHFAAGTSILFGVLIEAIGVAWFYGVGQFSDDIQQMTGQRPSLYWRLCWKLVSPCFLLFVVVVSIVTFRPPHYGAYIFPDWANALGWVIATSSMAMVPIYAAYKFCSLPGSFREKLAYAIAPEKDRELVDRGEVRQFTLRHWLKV
T8 sequence (P08913 whole entry): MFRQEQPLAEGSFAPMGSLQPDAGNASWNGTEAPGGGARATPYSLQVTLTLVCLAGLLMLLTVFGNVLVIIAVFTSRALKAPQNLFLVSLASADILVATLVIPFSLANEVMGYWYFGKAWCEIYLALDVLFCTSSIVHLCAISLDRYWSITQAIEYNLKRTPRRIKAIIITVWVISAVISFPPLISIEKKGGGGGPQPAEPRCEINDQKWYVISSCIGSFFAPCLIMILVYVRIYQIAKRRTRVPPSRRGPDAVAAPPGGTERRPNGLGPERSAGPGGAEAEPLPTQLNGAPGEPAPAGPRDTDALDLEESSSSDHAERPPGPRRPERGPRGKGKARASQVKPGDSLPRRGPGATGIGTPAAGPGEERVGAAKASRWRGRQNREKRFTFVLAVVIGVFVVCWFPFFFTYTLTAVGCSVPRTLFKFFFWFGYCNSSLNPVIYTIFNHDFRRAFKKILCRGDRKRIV
T7 sequence (P47898 whole entry): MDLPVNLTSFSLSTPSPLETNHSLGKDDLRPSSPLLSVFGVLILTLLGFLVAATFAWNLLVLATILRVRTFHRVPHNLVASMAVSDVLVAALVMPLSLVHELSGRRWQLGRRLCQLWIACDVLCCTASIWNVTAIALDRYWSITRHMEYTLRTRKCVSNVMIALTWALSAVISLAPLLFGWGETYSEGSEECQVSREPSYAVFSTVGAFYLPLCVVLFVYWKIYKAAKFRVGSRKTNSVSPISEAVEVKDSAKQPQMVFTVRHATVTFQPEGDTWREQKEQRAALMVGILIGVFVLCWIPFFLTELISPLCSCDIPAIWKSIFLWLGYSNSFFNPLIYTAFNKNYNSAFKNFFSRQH
T10 sequence (P28223 whole entry): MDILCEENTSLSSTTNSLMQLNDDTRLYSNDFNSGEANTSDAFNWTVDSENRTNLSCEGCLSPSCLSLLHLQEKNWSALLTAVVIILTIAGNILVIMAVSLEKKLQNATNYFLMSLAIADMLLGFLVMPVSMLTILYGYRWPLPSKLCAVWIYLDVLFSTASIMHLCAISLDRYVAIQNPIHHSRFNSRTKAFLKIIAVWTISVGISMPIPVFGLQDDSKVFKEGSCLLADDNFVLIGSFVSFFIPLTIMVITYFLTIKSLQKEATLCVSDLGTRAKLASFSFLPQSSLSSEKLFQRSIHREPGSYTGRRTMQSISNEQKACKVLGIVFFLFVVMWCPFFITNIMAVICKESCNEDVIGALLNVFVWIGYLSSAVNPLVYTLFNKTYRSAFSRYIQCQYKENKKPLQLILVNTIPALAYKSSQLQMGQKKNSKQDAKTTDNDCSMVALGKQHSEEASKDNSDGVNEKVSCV

Row | SMILES | Ki [1] | Ki (5-HT1A receptor) | Hill plot ratio (Hill slope) (5-HT1A receptor; equilibrium binding) | Ki [2] | Hill plot ratio (Hill slope) ([2]; equilibrium binding, α-1A) | Ki [3] | Ki (dopamine D1 receptor [4]) | Hill plot ratio (Hill slope) (dopamine D1 receptor [4]; equilibrium binding) | Ki (D2S) | Ki (D5) | Ki (5-HT5A receptor) | IC50 [5] | Four parameter Hill slope (or fit slope) ratio; Ca2+ signaling (dopamine D1 receptor [6]) | IC50 (dopamine D1 receptor [6]) | IC50 (adrenergic α1B receptor) | Four parameter Hill slope (or fit slope) ratio; β-arrestin signaling (adrenergic α1B receptor; α-1B) | IC50 (5-HT2A) | Ki (dopamine (D) transporter) | Ki (5-HT6)
1 | CNCCC=C1c2ccccc2C=Cc2ccccc21 [norcyclobenzaprine, 3-(5H-dibenzo[a,d]cyclohepten-5-ylidene)-N-methyl-1-propanamine] | 48 nM | 76 nM | 4.07 | 34 nM | 1.16 | 11 nM | 57 nM | 1.15 | 410 nM | 280 nM | 1600 nM | 6400 nM | 0.98 | 300 nM | 173 nM | 0.70 | 450 nM | > 10000 nM | 1400 nM
2 | CN(C)CCC=C1c2ccccc2C=Cc2ccccc21 [cyclobenzaprine, 3-(5H-dibenzo[a,d]cyclohepten-5-ylidene)-N,N-dimethyl-1-propanamine] | 21 nM and 25 nM | 1100 nM | – | 5.6 nM | – | 9.1 nM | 12 nM | – | 120 nM | 60 nM | 730 nM | 4300 nM | – | 65 nM | 144 nM | – | 210 nM | > 10000 nM | 480 nM
